The text below walks through data of patent US20260193257A1, “BICYCLIC DERIVATIVES” (Elanco Tiergesundheit AG, priority 2018, published 2026).

SMILES strings stand for the structures. Where only a bound is given, the exact number is not on record here.

Test [1] relates to H. contortus (H.c.) larvae. Description: Ruminant gastrointestinal (H. contortus) larval motility assay. The following applies: Haemonchus contortus, read-out: EC50 (motility inhibition).
Method: H.c. eggs isolated from lamb fecal matter are allowed to hatch overnight. Test compounds are diluted in DMSO and added to a 96-well plate containing appropriate media. H.c. larvae are added to each well and plates are incubated for the desired time(s). Motility is assessed using an LCD camera imaging system. Percent motility inhibition values are generated relative to the average of the DMSO-only wells.
Another test concerns D. immitis microfilariae. In words: Dog heart worm microfilariae motility assay. It counts as cell-based. The following applies: Dirofilaria immitis, read-out: EC50 (motility inhibition).
A further test deals with L. sigmodontis. Description: L.s. model in mice. Particulars: oral gavage, dose between 1×3 mg/kg and 5×32 mg/kg, necropsy 5 weeks after infection.
The test system of another test is T. colubriformis. In words: Gastro intestinal nematodes, infected jird model (T. colubriformis). The following applies: Jirds (Meriones unguiculatus), oral, Day 6 after infection, dose between 1×3 mg/kg and 1×32 mg/kg, worms recovered from small intestine three days after treatment.

Method for L. sigmodontis: Model Mice, injected subcutaneously with infective L. sigmodontis larvae, were subsequently treated with the test article formulated in eg DMSO/PEG 2/1, by oral gavage at a dose in a range between 1×3 mg/kg up to 5×32 mg/kg (one dose per day for 5 consecutive days). At necropsy 5 weeks after infection, efficacy is calculated by counting developed larvae vs. untreated animals using Abbot's formula.
Method for T. colubriformis: Jirds (Meriones unguiculatus), are artificially infected by gavage with third instar larvae each of T. colubriformis and H. contortus. Then treated orally with the test compound formulated in eg DMSO/PEG 2/1, on Day 6 after infection at a dose in a range between 1×3 mg/kg up to 1×32 mg/kg. Three days after treatment, gerbils are euthanized and dissected to recover H. contortus from stomach and T. colubriformis from the small intestine. Efficacy is expressed as a % reduction in worm numbers in comparison with a placebo treated group, using the Abbot's formula.

By EC50 is commonly meant the concentration that produces a half-maximal response. Take `CN(C)c1c(NC(=O)[C@@H]2CCOc3ccccc32)cnc2c(-c3cc(Cl)cc(Cl)c3)ccnc12` [Example 6.1, (4R)—N-[8-(3,5-dichlorophenyl)-4-(dimethylamino)-1,5-naphthyridin-3-yl]chromane-4-carboxamide]: the EC50 in test [1] was < 1 µg/mL. As for `CN(C)c1c(NC(=O)[C@H]2CCOc3ccccc32)cnc2c(-c3cc(Cl)cc(C(F)(F)F)c3)cccc12` [Example 1.11, (4S)-N-[8-[3-chloro-5-(trifluoromethyl)phenyl]-4-(dimethylamino)-3-quinolyl]chromane-4-carboxamide], the EC50 in test [1] was < 1 µg/mL; in the test with D. immitis microfilariae, < 0.1 µg/mL. For the compound `CON(C)c1c(NC(=O)[C@@H]2CCOc3ccccc32)cnc2c(-c3cc(Cl)cc(Cl)c3)cccc12` [Example 1.7, (4R)-N-[8-(3,5-dichlorophenyl)-4-[methoxy(methyl)amino]-3-quinolyl]chromane-4-carboxamide], in the test with D. immitis microfilariae, the EC50 was < 0.1 µg/mL. Regarding `CN(C)c1c(NC(=O)[C@H]2CCCc3ccccc32)cnc2c(-c3cc(Cl)cc(Cl)c3)cccc12` [Example 1.4, (1S)-N-[8-(3,5-dichlorophenyl)-4-(dimethylamino)-3-quinolyl]tetralin-1-carboxamide], the EC50 in test [1] is < 1 µg/mL; with D. immitis microfilariae it was < 0.1 µg/mL. Besides, the “Efficacy against Ls (developed larvae vs. untreated animals, Abbot's formula)” value in the test with L. sigmodontis is > 80%. Regarding `CN(C)c1c(NC(=O)[C@H]2CCOc3ccccc32)cnc2c(-c3cccc(Cl)c3Cl)cccc12` [Example 1.9, (4S)-N-[8-(2,3-dichlorophenyl)-4-(dimethylamino)-3-quinolyl]chromane-4-carboxamide], the EC50 in test [1] was < 1 µg/mL; in the test with D. immitis microfilariae, < 0.1 µg/mL. Regarding `CN(C)c1c(NC(=O)[C@@H]2CCCc3ccccc32)cnc2c(-c3cc(Cl)cc(Cl)c3)cccc12` [Example 1.3, (1R)-N-[8-(3,5-dichlorophenyl)-4-(dimethylamino)-3-quinolyl]tetralin-1-carboxamide], in the test on D. immitis microfilariae, the half-maximal effective concentration (EC50) is < 0.1 µg/mL.

Turning to `CN(C)c1c(NC(=O)[C@@H]2CCOc3ccccc32)cnc2c(-c3cc(Cl)cc(Cl)c3)nccc12` [Example 4.2, (4R)-N-[8-(3,5-dichloro-dichlorophenyl)-4-(dimethylamino)-1,7-naphthyridin-3-yl]chromane-4-carboxamide], the EC50 in test [1] was < 1 µg/mL.

With `CN(C)c1c(NC(=O)N[C@H]2CCOc3ccccc32)cnc2c(-c3cc(Cl)cc(Cl)c3)cccc12` [Example 7.1, 1-[(4S)-Chroman-4-yl]-3-[8-(3,5-dichlorophenyl)-4-(dimethylamino)-3-quinolyl]urea], the EC50 in test [1] is < 1 µg/mL. Consider `O=C(Nc1cnc2c(-c3cc(Cl)cc(Cl)c3)cccc2c1N1CCOCC1)[C@H]1CCOc2ccccc21` [Example 1.12, (4S)-N-[8-(3,5-dichlorophenyl)-4-morpholino-3-quinolyl]chromane-4-carboxamide], for which the results for the concentration for a half-maximal effect (EC50) (in test [1]; in the test with D. immitis microfilariae) were < 1 µg/mL and < 0.1 µg/mL, respectively. As for `O=C(Nc1cnc2c(-c3cc(Cl)cc(Cl)c3)cccc2c1C1CC1)[C@H]1CCOc2ccccc21` [Example 1.6, (4S)-N-[4-cyclopropyl-8-(3,5-dichlorophenyl)-3-quinolyl]chromane-4-carboxamide], the EC50 in test [1] was < 1 µg/mL; in the test with D. immitis microfilariae it was < 0.1 µg/mL. As to `CN(C)c1c(NC(=O)[C@H]2CCOc3ccccc32)cnc2c(-c3cc(Cl)cc(Cl)c3)ccnc12` [Example 6.2, (4S)-N-[8-(3,5-dichlorophenyl)-4-(dimethylamino)-1,5-naphthyridin-3-yl]chromane-4-carboxamide], the concentration giving a half-maximal response (EC50) is < 1 µg/mL in test [1] and < 0.1 µg/mL in the test on D. immitis microfilariae. As for `O=C(Nc1cnc2c(-c3cc(Cl)cc(Cl)c3)ccnc2c1N1CCOCC1)[C@H]1CCOc2ccccc21` [Example 6.3, (4S)-N-[8-(3,5-dichlorophenyl)-4-morpholino-1,5-naphthyridin-3-yl]chromane-4-carboxamide], the EC50 in test [1] is < 1 µg/mL; in the test on D. immitis microfilariae it was < 0.1 µg/mL. `CN(C)c1c(NC(=O)[C@@H]2CCOc3ccccc32)cnc2c(-c3cc(Cl)cc(Cl)c3)cccc12` [Example 1.1, (4R)—N-[8-(3,5-dichlorophenyl)-4-(dimethylamino)-3-quinolyl]chromane-4-carboxamide]: the EC50 in test [1] is < 1 µg/mL; in the test with D. immitis microfilariae it was < 0.1 µg/mL. For the same compound, the “Efficacy against Tc (% reduction in worm numbers vs placebo, Abbot's formula)” value in the test with T. colubriformis is > 80%.
